In this test the target is T1, purified human HDAC6 (Homo sapiens, UniProt Q9UBN7).
T1 construct: purchased BPS Bioscience 5006
T1 sequence (Q9UBN7 1-1215): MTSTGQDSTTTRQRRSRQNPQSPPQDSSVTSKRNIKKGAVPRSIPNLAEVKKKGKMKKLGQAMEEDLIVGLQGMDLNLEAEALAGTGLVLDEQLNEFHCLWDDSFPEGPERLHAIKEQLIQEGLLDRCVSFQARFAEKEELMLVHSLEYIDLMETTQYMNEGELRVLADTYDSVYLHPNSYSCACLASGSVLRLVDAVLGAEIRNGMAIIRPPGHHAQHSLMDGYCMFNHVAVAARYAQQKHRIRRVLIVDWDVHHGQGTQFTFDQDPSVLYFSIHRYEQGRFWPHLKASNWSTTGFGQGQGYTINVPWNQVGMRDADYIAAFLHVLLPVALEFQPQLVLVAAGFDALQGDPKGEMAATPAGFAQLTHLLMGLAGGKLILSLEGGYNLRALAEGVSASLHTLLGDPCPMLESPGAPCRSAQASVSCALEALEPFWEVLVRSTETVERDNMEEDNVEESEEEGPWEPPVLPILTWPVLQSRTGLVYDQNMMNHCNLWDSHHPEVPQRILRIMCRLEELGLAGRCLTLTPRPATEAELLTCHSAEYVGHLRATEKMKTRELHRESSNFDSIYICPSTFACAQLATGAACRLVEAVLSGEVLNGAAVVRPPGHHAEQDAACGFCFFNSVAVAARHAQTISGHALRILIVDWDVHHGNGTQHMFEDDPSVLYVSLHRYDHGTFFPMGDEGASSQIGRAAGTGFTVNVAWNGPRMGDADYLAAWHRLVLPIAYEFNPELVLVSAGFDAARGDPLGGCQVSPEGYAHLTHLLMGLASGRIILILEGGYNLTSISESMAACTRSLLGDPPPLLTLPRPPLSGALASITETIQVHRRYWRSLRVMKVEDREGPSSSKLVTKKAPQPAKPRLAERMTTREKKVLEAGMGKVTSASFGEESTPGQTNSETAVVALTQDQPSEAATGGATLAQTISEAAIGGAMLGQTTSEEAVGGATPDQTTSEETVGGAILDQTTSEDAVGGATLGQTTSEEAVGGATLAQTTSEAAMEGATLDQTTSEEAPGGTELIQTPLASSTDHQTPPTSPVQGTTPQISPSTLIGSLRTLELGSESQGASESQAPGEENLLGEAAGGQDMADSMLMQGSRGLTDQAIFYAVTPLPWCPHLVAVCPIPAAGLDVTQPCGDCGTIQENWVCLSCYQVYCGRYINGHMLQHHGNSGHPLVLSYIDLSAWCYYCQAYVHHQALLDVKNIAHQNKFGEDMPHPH
Briefly: HDAC6 Enzyme Assay. Format: biochemical. The procedure: To measure the inhibition of HDAC6 activity, purified human HDAC6 (BPS Bioscience; Cat. No. 5006) is incubated with substrate Ac-Arg-Gly-Lys(Ac)-AMC peptide (Bachem Biosciences; Cat. No. I-1925) for 1 hour at 30° C. in the presence of test compounds or vehicle DMSO control. The reaction is stopped with the HDAC inhibitor trichostatin A (Sigma; Cat. No. T8552) and the amount of Arg-Gly-Lys-AMC generated is quantitated by digestion with trypsin (Sigma; Cat. No. T1426) and subsequent measurement of the amount of AMC released using a fluorescent plate reader (Pherastar; BMG Technologies) set at Ex 340 nm and Em 460 nm. Concentration response curves are generated by calculating the fluorescence increase in test compound-treated samples relative to DMSO-treated controls, and enzyme inhibition (IC50) values are determined from those curves.
A word on the IC50: it is the concentration needed to halve the response being measured. Turning to `O=C(NO)c1ccc2c(c1)CCCN(C(=O)c1cc3ccccc3o1)C2` [Compound 250, 2-(1-benzofuran-2-ylcarbonyl)-N-hydroxy-2,3,4,5-tetrahydro-1H-2-benzazepine-7-carboxamide], the IC50 was < 50 nM. To `CC(=O)Nc1cc(NC(C)=O)cc(C(=O)N2CCCc3cc(C(=O)NO)ccc3C2)c1` [Compound 256, 2-[3,5-bis(acetylamino)benzoyl]-N-hydroxy-2,3,4,5-tetrahydro-1H-2-benzazepine-7-carboxamide] belongs 100 to 500 nM; to `O=C(NO)c1ccc2c(c1)CCN(Cc1ccc(-n3cncn3)cc1)C2` [Compound 59, N-hydroxy-2-[4-(1H-1,2,4-triazol-1-yl)benzyl]-1,2,3,4-tetrahydroisoquinoline-6-carboxamide], 100 to 500 nM. To `O=C(NO)c1ccc2c(c1)CCN(Cc1ccc(OC(F)(F)F)cc1)C2` [Compound 61, N-hydroxy-2-[4-(trifluoromethoxy)benzyl]-1,2,3,4-tetrahydroisoquinoline-6-carboxamide] belongs 100 to 500 nM. In the case of `O=C(NO)c1ccc2c(c1)CCN(C(=O)C1(c3ccc(Cl)cc3)CCC1)C2` [Compound 4, 2-{[1-(4-chlorophenyl)cyclobutyl]carbonyl}-N-hydroxy-1,2,3,4-tetrahydroisoquinoline-6-carboxamide], the IC50 is < 50 nM.

`O=C(NO)c1ccc2c(c1)CCCN(C(=O)C1CCCCC1)C2` [Compound 247, 2-(cyclohexylcarbonyl)-N-hydroxy-2,3,4,5-tetrahydro-1H-2-benzazepine-7-carboxamide] yielded an IC50 of 100 to 500 nM.

Consider `O=C(NO)c1ccc2c(c1)CCN(C(=O)CC1CC1)C2` [Compound 106, 2-(cyclopropylacetyl)-N-hydroxy-1,2,3,4-tetrahydroisoquinoline-6-carboxamide], for which the IC50 was 100 to 500 nM. To `COc1ccc(-c2ccc(S(=O)(=O)N3CCc4cc(C(=O)NO)ccc4C3)cc2)cc1` [Compound 43, N-hydroxy-2-[(4′-methoxybiphenyl-4-yl)sulfonyl]-1,2,3,4-tetrahydroisoquinoline-6-carboxamide] belongs 50 to 100 nM; to `CC(C)(C)c1ccc(S(=O)(=O)N2CCc3cc(C(=O)NO)ccc3C2)cc1` [Compound 44, 2-[(4-tert-butylphenyl)sulfonyl]-N-hydroxy-1,2,3,4-tetrahydroisoquinoline-6-carboxamide], 50 to 100 nM. As to `O=C(NO)c1ccc2c(c1)CCCN(C(=O)c1cnc3ccccc3c1)C2` [Compound 255, N-hydroxy-2-(quinolin-3-ylcarbonyl)-2,3,4,5-tetrahydro-1H-2-benzazepine-7-carboxamide], the half-maximal inhibitory concentration (IC50) lay in the range of 100 to 500 nM. Turning to `Cc1nc(S(=O)(=O)N2CCc3cc(C(=O)NO)ccc3C2)cn1C` [Compound 51, 2-[(1,2-dimethyl-1H-imidazol-4-yl)sulfonyl]-N-hydroxy-1,2,3,4-tetrahydroisoquinoline-6-carboxamide], the IC50 was 100 to 500 nM. As to `CC(NC(=O)N1CCc2cc(C(=O)NO)ccc2C1)c1cccc2ccccc12` (stereo not drawn) [Compound 103, N^6-hydroxy-N^2-[1-(1-naphthyl)ethyl]-3,4-dihydroisoquinoline-2,6(1H)-dicarboxamide], the IC50 was < 50 nM. `Cc1ccc2[nH]c(C(=O)N3CCCc4cc(C(=O)NO)ccc4C3)cc2c1` [Compound 253, N-hydroxy-2-[(5-methyl-1H-indol-2-yl)carbonyl]-2,3,4,5-tetrahydro-1H-2-benzazepine-7-carboxamide]: the IC50 was < 50 nM. For `Cn1ccc(C(=O)N2CCCc3cc(C(=O)NO)ccc3C2)n1` [Compound 233, N-hydroxy-2-[(1-methyl-1H-pyrazol-3-yl)carbonyl]-2,3,4,5-tetrahydro-1H-2-benzazepine-7-carboxamide], the IC50 was > 500 nM. To `CCCCS(=O)(=O)N1CCc2cc(C(=O)NO)ccc2C1` [Compound 38, 2-(butylsulfonyl)-N-hydroxy-1,2,3,4-tetrahydroisoquinoline-6-carboxamide] belongs 50 to 100 nM; to `CC(C)C(C(=O)N1CCc2cc(C(=O)NO)ccc2C1)c1ccccc1` (stereo not drawn) [Compound 27, N-hydroxy-2-(3-methyl-2-phenylbutanoyl)-1,2,3,4-tetrahydroisoquinoline-6-carboxamide], < 50 nM. Take `COc1ccc(S(=O)(=O)N2CCc3cc(C(=O)NO)ccc3C2)cc1` [Compound 49, N-hydroxy-2-[(4-methoxyphenyl)sulfonyl]-1,2,3,4-tetrahydroisoquinoline-6-carboxamide]: the IC50 was < 50 nM. For `Cc1cc(C(F)(F)F)nn1CC(=O)N1CCc2cc(C(=O)NO)ccc2C1` [Compound 37, N-hydroxy-2-{[5-methyl-3-(trifluoromethyl)-1H-pyrazol-1-yl]acetyl}-1,2,3,4-tetrahydroisoquinoline-6-carboxamide], the IC50 was in the range of 100 to 500 nM. In the case of `Cc1cc(C)c(C(=O)N2CCCc3cc(C(=O)NO)ccc3C2)c(C)c1` [Compound 259], the 50% inhibitory concentration (IC50) was > 500 nM. To `O=C(NO)c1ccc2c(c1)CCN(C(=O)C1CCCCC1)C2` [Compound 5, 2-(cyclohexylcarbonyl)-N-hydroxy-1,2,3,4-tetrahydroisoquinoline-6-carboxamide] belongs 50 to 100 nM. `CC(C)(C)C(=O)N1Cc2ccc(C(=O)NO)cc2C1` [Compound 81, 2-(2,2-dimethylpropanoyl)-N-hydroxyisoindoline-5-carboxamide] showed an IC50 of 50 to 100 nM. To `O=C(NO)c1ccc2c(c1)CCN(c1nc(-c3ccc4c(c3)OCCO4)cs1)C2` [Compound 75, 2-[4-(2,3-dihydro-1,4-benzodioxin-6-yl)-1,3-thiazol-2-yl]-N-hydroxy-1,2,3,4-tetrahydroisoquinoline-6-carboxamide] belongs < 50 nM. To `O=C(NO)c1ccc2c(c1)CCN(C(=O)COc1ccccc1)C2` [Compound 21, N-hydroxy-2-(phenoxyacetyl)-1,2,3,4-tetrahydroisoquinoline-6-carboxamide] belongs 50 to 100 nM; to `O=C(NO)c1ccc2c(c1)CCCN(C(=O)c1ccc(C(F)(F)F)cc1)C2` [Compound 84, N-hydroxy-2-[4-(trifluoromethyl)benzoyl]-2,3,4,5-tetrahydro-1H-2-benzazepine-7-carboxamide], > 500 nM; to `O=C(NO)c1ccc2c(c1)CCN(Cc1cccc3nsnc13)C2` [Compound 69, 2-(2,1,3-benzothiadiazol-4-ylmethyl)-N-hydroxy-1,2,3,4-tetrahydroisoquinoline-6-carboxamide], 100 to 500 nM. To `CC(C)(C(=O)N1CCc2ccc(C(=O)NO)cc2CC1)c1ccc(Cl)cc1` [Compound 88, 3-[2-(4-chlorophenyl)-2-methylpropanoyl]-N-hydroxy-2,3,4,5-tetrahydro-1H-3-benzazepine-7-carboxamide] belongs < 50 nM.

Regarding `O=C(NO)c1ccc2c(c1)CCN(S(=O)(=O)Cc1ccccc1)C2` [Compound 39, 2-(benzylsulfonyl)-N-hydroxy-1,2,3,4-tetrahydroisoquinoline-6-carboxamide], the IC50 lay within 50 to 100 nM. To `Cc1ccc(CNC(=O)N2CCc3cc(C(=O)NO)ccc3C2)cc1` [Compound 105, N^6-hydroxy-N^2-(4-methylbenzyl)-3,4-dihydroisoquinoline-2,6(1H)-dicarboxamide] belongs < 50 nM. For `O=C(NO)c1ccc2c(c1)CCN(C(=O)CC1CCCC1)C2` [Compound 25, 2-(cyclopentylacetyl)-N-hydroxy-1,2,3,4-tetrahydroisoquinoline-6-carboxamide], the concentration for half-maximal inhibition (IC50) is < 50 nM. The compound `O=C(NO)c1ccc2c(c1)CCCN(C(=O)c1csc3ccccc13)C2` [Compound 258, 2-(1-benzothien-3-ylcarbonyl)-N-hydroxy-2,3,4,5-tetrahydro-1H-2-benzazepine-7-carboxamide] returned an IC50 of 100 to 500 nM.
